In patent US9221761B2, “Method for inhibition of deubiquitinating activity” (Vivolux AB, priority 2011, dated 2015):

What was measured:
[1] = tested on: HCT116; experiment: FMCA (Fluorometric Microculture Cytotoxicity Assay) cytotoxicity; format: cell-based; conditions: 72 hours of continuous compound exposure
Experimental: FIGS. 1a to 1o are diagrams illustrating induction of dose-dependent cytotoxicity after 72 hours of continuous compound exposure to the reporter cell line HCT-116 by embodiments of the compound of the invention, as measured FMCA (Fluorometric Microculture Cytotoxicity Assay), as well as absence of such induction by structurally related compounds not comprised by the invention. Treated cells were compared to untreated controls (survival index);
Determination of cell apoptosis and viability. For determination of apoptosis parental HCT-116 p53+/+ cells are treated with the increasing doses of the compound of the invention for 24 h. […] HCT-116 cells are seeded in 96-well microtiter plates at 10,000 cells per well and incubated overnight. Cells are treated with indicated drug for 24 h. At the end of the incubation period, NP40 is added to the tissue culture medium to 0.1% and 25 μl of the content of each well was assayed using the M30-Apoptosense® ELISA as previously described (31). Cell viability is determined by measuring acid phosphatase activity or using the FMCA method (32). For the acid phosphatase activity cells are seeded at 5000 cells per well in 96-well culture plates and incubated for 12 h at 37° C. Compounds are added to the cells in growth media and incubated for 72 h at 37° C. Cells are washed with 200 μl warm PBS. 100 μl of para-nitrophenyl phosphate (pNPP, 2 mg/ml) in Na acetate buffer pH 5 (NaAc 0.1 M, 0.1% Triton-X-100) is added per well. Cells are incubated for 2 h after which reaction was stopped by addition of 1N NaOH. Absorbance is measured at 405 nm. The dose-dependent cytotoxicity of a number of embodiments of the compound of the invention is illustrated in FIGS. 1a-1o.
For the FMCA assay cells are seeded in the drug-prepared 384-well plates using the pipetting robot Precision 2000 (Bio-Tek Instruments Inc., Winooski, Vt.). The plates are incubated for 72 h and then transferred to an integrated HTS SAIGAN Core System consisting of an ORCA robot (Beckman Coulter) with CO2 incubator (Cytomat 2C, Kendro, Sollentuna, Sweden), dispenser module (Multidrop 384, Titertek, Huntsville, Ala.), washer module (ELx 405, Bio-Tek Instruments Inc), delidding station, plate hotels, barcode reader (Beckman Coulter), liquid handler (Biomek 2000, Beckman Coulter) and a multipurpose reader (FLUOstar Optima, BMG Labtech GmbH, Offenburg, Germany) for automated FMCA. Survival index (SI) is defined as the fluorescence of test wells in percentage of controls with blank values subtracted.
FIGS. 3b, 3d, 3f are diagrams illustrating the cytotoxicity of compounds of the invention nos. 1546, 1547, and 1570 with a 7-membered ring moiety in comparison to structurally corresponding compounds not comprised by the invention with a 6-membered ring moiety. Their induction of dose-dependent cytotoxicity was determined after 72 hours of continuous compound exposure to the reporter cell line HCT-116. Treated cells were compared with untreated controls. Cytotoxicity is visualized as survival index (SI) over the range of about 90% SI to about 0% SI in dependence on compound concentration.

[2] = tested on: MelJuSo Ub-YFP reporter cell line; experiment: Proteasome inhibition in reporter cell line, YFP accumulation in IncuCyte-FLR; format: cell-based; conditions: YFP accumulation measured for 48 hours; for MeJuSo-UB, IncuCyte lowest effective conc.: Table 1; for MeJuSo-UB, lowest effective conc.: Table 2
Text: Cell culture. MCF7 cells are maintained in MEM/10% fetal calf serum. HCT-116 p53+/+, p53−/−, Bcl-2+/+, PUMA−/− and BAX−/− cells are maintained in McCoy's 5A modified medium/10% fetal calf serum. The HCT-116 p53+/+, p53−/−, PUMA−/− and BAX−/− are generated as described (25). The HCT-116 Bcl-2+/+ cell line was generated by transfecting parental HCT-116 p53+/+ cells with pCEP4 Bcl-2 (Addgene plasmid 16461) (26) and isolating high expression clones. FaDu and LLC3 cells are maintained in DMEM high glucose medium supplemented with 10% fetal calf serum, Na pyruvate, Hepes and non-essential amino acids. 4T1.12B carcinoma cells are maintained in RPMI medium supplemented with 10% fetal calf serum. The proteasome reporter cell line MelJuSo Ub-YFP was generated as described (12). Cells were maintained in Dulbecco's Modified Eagle's Medium/10% fetal calf serum. […] The retinal epithelial cell line was generated as described (28). All cells are maintained at 37° C. in 5% CO2.
The compound of the invention induces proteasome inhibition. The reporter cell line MelJuSo Ub-YFP, which is engineered to accumulate yellow fluorescent protein (YFP) upon proteasome inhibition (12), was used for compound evaluation. The accumulation of YFP was measured for 48 hours in an IncuCyte-FLR system (Essen Bioscience, Essen, UK), which is an automated fluorescence microscope. Numbers of positive cells per field were used as a measure of proteasome inhibition.

Compound | IC50 ([1]; Table 1) | MeJuSo-UB, IncuCyte lowest effective conc. [2] | IC50 ([1]; Table 2) | MeJuSo-UB, lowest effective conc. [2] | further results
COc1ccc(C=C2CN(C)CCC(=Cc3ccc(Cl)cc3)C2=O)cc1 [Compound 1590] | 2000 nM | 1 µM | – | – | –
CC(=O)OCC(=O)N1CC/C(=C\c2ccc(Cl)c(C(F)(F)F)c2)C(=O)/C(=C/c2ccc(Cl)c(C(F)(F)F)c2)C1 [Compound 1656] | – | – | 700 nM | 0.5 µM | –
N#Cc1ccc(C=C2CCNCC(=Cc3ccc(C#N)cc3)C2=O)cc1 [Compound 1625] | 900 nM | 0.5 µM | – | – | –
CC(=O)N1CCC(=Cc2ccc(F)c(F)c2)C(=O)C(=Cc2ccc(F)c(F)c2)C1 [Compound 1628] | – | – | 2300 nM | 1 µM | –
O=C1C(=Cc2ccc(F)cc2)CCNCC1=Cc1ccc(Cl)cc1 [Compound 1582] | 1700 nM | 2 µM | – | – | –
O=C1C(=Cc2ccc([N+](=O)[O-])cc2)CCNCC1=Cc1ccc(F)cc1 [Compound 1596] | 2600 nM | 2 µM | – | – | –
O=C1C(=Cc2ccc([N+](=O)[O-])cc2)CCNCC1=Cc1ccc([N+](=O)[O-])cc1 [Compound 1613] | 25000 nM | 32 µM | – | – | –
CC(=O)OCC(=O)N1CC/C(=C\c2ccc(C(F)(F)F)cc2)C(=O)/C(=C/c2ccc(C(F)(F)F)cc2)C1 [Compound 1642] | – | – | 1200 nM | 1 µM | –
CN1CCC(=Cc2ccc(C(F)(F)F)c(F)c2)C(=O)C(=Cc2ccc(C(F)(F)F)c(F)c2)C1 [Compound 1624] | 1800 nM | 1 µM | – | – | –
CN1CCC(=Cc2ccc(Cl)c(C(F)(F)F)c2)C(=O)C(=Cc2ccc(Cl)c(C(F)(F)F)c2)C1 [Compound 1615] | 900 nM | 0.5 µM | – | – | –
CN1CCC(=Cc2ccc(F)cc2)C(=O)C(=Cc2ccc(Cl)cc2)C1 [Compound 1595] | 2300 nM | 1 µM | – | – | –
CN1CCC(=Cc2ccc([N+](=O)[O-])cc2)C(=O)C(=Cc2ccc([N+](=O)[O-])cc2)C1 [Compound 1614] | 7400 nM | 8 µM | – | – | –
COc1ccc(/C=C2\CN(C)CC/C(=C\c3ccc(F)cc3)C2=O)cc1 [Compound 1577, (3E,5E)-5-[(4-fluorophenyl)methylidene]-3-[(4-methoxyphenyl)methylidene]-1-methylazepan-4-one] | – | 8 µM | – | – | IC50 ([1]; Homo sapiens, HCT-116, Table 1): 4900 nM
CC(=O)N1CCC(=Cc2ccc(F)c(Cl)c2)C(=O)C(=Cc2ccc(F)c(Cl)c2)C1 [Compound 1631] | – | – | 1000 nM | 32 µM | –
C=CC(=O)N1CCC(=Cc2ccc(F)cc2)C(=O)C(=Cc2ccc(F)cc2)C1 [Compound 1569] | – | – | 2000 nM | 4 µM | –
O=C1C(=Cc2ccc(Cl)cc2)CCNCC1=Cc1ccc([N+](=O)[O-])cc1 [Compound 1584] | 1800 nM | 2 µM | – | – | –

Compound | IC50 ([1]; Table 1) | MeJuSo-UB, IncuCyte lowest effective conc. [2] | IC50 ([1]; Table 2) | MeJuSo-UB, lowest effective conc. [2] | further results
O=C1C(=Cc2ccc(Cl)cc2)CCN(C(=O)Cc2ccccc2)CC1=Cc1ccc(Cl)cc1 [Compound 1635] | – | – | 1400 nM | 2 µM | –
CCOC(=O)CCC(=O)N1CC/C(=C\c2ccc([N+](=O)[O-])cc2)C(=O)/C(=C/c2ccc([N+](=O)[O-])cc2)C1.O=C(O)C(F)(F)F [Compound 1507, (3E,5E)-1-(4-ethoxy-4-oxobutanoyl)-3,5-bis[(4-nitrophenyl)methylidene]-4-oxoazepan-1-ium trifluoroacetate] | – | – | – | 8 µM | IC50 ([1]; Homo sapiens, HCT-116, Table 2): 4400 nM
CN1CCC(=Cc2ccc([N+](=O)[O-])cc2)C(=O)C(=Cc2ccc(Cl)cc2)C1 [Compound 1594] | 2600 nM | 1 µM | – | – | –
CC(=O)OCCC(=O)N1CCC(=Cc2ccc(Cl)c(F)c2)C(=O)C(=Cc2ccc(Cl)c(F)c2)C1 [Compound 1660] | – | – | 2400 nM | 2 µM | –
O=C1/C(=C/c2ccc(F)c([N+](=O)[O-])c2)CCN(C(=O)Cc2ccccn2)C/C1=C\c1ccc(F)c([N+](=O)[O-])c1 [Compound 1648] | – | – | 800 nM | 0.5 µM | –
O=C1C(=Cc2ccc(Cl)cc2)CCN(C(=O)c2cccnc2)CC1=Cc1ccc(Cl)cc1 [Compound 1637] | – | – | 2100 nM | 2 µM | –
O=C1C(=Cc2ccc(Cl)cc2)CCNCC1=Cc1ccc(F)cc1 [Compound 1586] | 1100 nM | 0.5 µM | – | – | –
O=C1C(=Cc2ccc(Cl)cc2)CCNCC1=Cc1ccc([N+](=O)[O-])cc1 [Compound 1592] | 12000 nM | 4 µM | – | – | –
N#Cc1cc(C=C2CCNCC(=Cc3ccc(F)c(C#N)c3)C2=O)ccc1F [Compound 1623] | 1000 nM | 0.5 µM | – | – | –
CN1CCC(=Cc2ccc(F)cc2)C(=O)C(=Cc2ccc([N+](=O)[O-])cc2)C1 [Compound 1587] | 3000 nM | 1 µM | – | – | –
CC(=O)OCCC(=O)N1CCC(=Cc2ccc(Cl)c(C(F)(F)F)c2)C(=O)C(=Cc2ccc(Cl)c(C(F)(F)F)c2)C1 [Compound 1666] | – | – | 1300 nM | 1 µM | –
CC(=O)N1CCC(=Cc2ccc(C(F)(F)F)cc2)C(=O)C(=Cc2ccc(C(F)(F)F)cc2)C1 [Compound 1627] | – | – | 700 nM | 1 µM | –
O=C1/C(=C/c2ccc(C(F)(F)F)cc2)CCN(C(=O)Cc2ccccn2)C/C1=C\c1ccc(C(F)(F)F)cc1 [Compound 1644] | – | – | 1400 nM | 1 µM | –
CN1CCC(=Cc2ccc([N+](=O)[O-])cc2)C(=O)C(=Cc2ccc(F)cc2)C1 [Compound 1593] | 2900 nM | 1 µM | – | – | –
O=C1C(=Cc2ccc(Cl)cc2)CCN(C(=O)c2cccs2)CC1=Cc1ccc(Cl)cc1 [Compound 1638] | – | – | 2000 nM | 2 µM | –
